In ChEMBL document CHEMBL1201862, “PubChem BioAssay data set” (2004):
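All cell lines were grown in 96-well plates and treated with compound for 48 hours. Abbreviation: GI50, concentration required for 50% inhibition of growth.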 Calls of active or inactive are those of the source. Cut-off read from the data, not from the text of the source: active = GI50 up to about 1.1 µM and inactive = higher.

Columns and labels:
Experiment in all cases: inhibition of tumour cell growth, NCI panel, 48 h
[1] = tested on: BT-549
[2] = tested on: CAKI-1
[3] = tested on: CCRF-CEM
[4] = tested on: EKVX
[5] = tested on: HCT-15
[6] = tested on: HOP-62
[7] = tested on: IGROV-1
[8] = tested on: LOX IMVI
[9] = tested on: M14
[10] = tested on: MDA-MB-435
[11] = tested on: NCI/ADR-RES
[12] = tested on: OVCAR-5
[13] = tested on: SR
[14] = tested on: SW-620
[15] = tested on: T47D
[16] = tested on: U-251
[17] = tested on: OVCAR-3
[18] = tested on: SF-268
[19] = tested on: UO-31
[20] = tested on: HL-60

| SMILES | GI50 [1] | GI50 [2] | GI50 [3] | GI50 [4] | GI50 [5] [µM] | GI50 [6] | GI50 [7] | GI50 [8] | GI50 [9] | GI50 [10] | GI50 [11] | GI50 [12] | GI50 [13] | GI50 [14] | GI50 [15] | GI50 [16] | GI50 [17] | GI50 [18] | GI50 [19] | GI50 [20] |
| --- | --- | --- | --- | --- | --- | --- | --- | --- | --- | --- | --- | --- | --- | --- | --- | --- | --- | --- | --- | --- |
| O=C(O)CCCOc1cc(-c2ccccc2F)nc2cc3c(cc12)OCO3 | 29.8 µM (inactive) | 9.64 µM (inactive) | 3.27 µM (inactive) | > 100 µM (inactive) | 27.9 | 4.01 µM (inactive) | 2.58 µM (inactive) | 4.51 µM (inactive) | 3.73 µM (inactive) | 3.18 µM (inactive) | 4.65 µM (inactive) | 8.32 µM (inactive) | 3.93 µM (inactive) | 6.07 µM (inactive) | > 100 µM (inactive) | 5.46 µM (inactive) | – | – | – | – |
| Cc1c[n+]([O-])c2ccccc2[n+]1[O-] | > 100 µM (inactive) | > 100 µM (inactive) | > 100 µM (inactive) | > 100 µM (inactive) | > 100 | > 100 µM (inactive) | > 100 µM (inactive) | > 100 µM (inactive) | > 100 µM (inactive) | > 100 µM (inactive) | > 100 µM (inactive) | > 100 µM (inactive) | > 100 µM (inactive) | > 100 µM (inactive) | > 100 µM (inactive) | > 100 µM (inactive) | > 100 µM (inactive) | > 100 µM (inactive) | > 100 µM (inactive) | – |
| C[n+]1c2ccccc2c(C(=O)Nc2ccc(S(=O)(=O)Nc3ncccn3)cc2)c2ccccc21 | 45.1 µM (inactive) | > 100 µM (inactive) | – | 80.7 µM (inactive) | > 100 | > 100 µM (inactive) | > 100 µM (inactive) | 79.3 µM (inactive) | > 100 µM (inactive) | 42.3 µM (inactive) | 32.5 µM (inactive) | > 100 µM (inactive) | > 100 µM (inactive) | > 100 µM (inactive) | > 100 µM (inactive) | > 100 µM (inactive) | > 100 µM (inactive) | > 100 µM (inactive) | 75.5 µM (inactive) | – |
| COc1ccc(OCC(=N/NC(=O)c2ccncc2)/N=C/c2ccncc2)cc1 | > 100 µM (inactive) | > 100 µM (inactive) | > 100 µM (inactive) | > 100 µM (inactive) | 51.5 | 71.8 µM (inactive) | 91.2 µM (inactive) | > 100 µM (inactive) | 82 µM (inactive) | 22.6 µM (inactive) | 77.6 µM (inactive) | > 100 µM (inactive) | – | 53.5 µM (inactive) | > 100 µM (inactive) | > 100 µM (inactive) | 48.6 µM (inactive) | > 100 µM (inactive) | – | 57.9 µM (inactive) |
| COc1ccc(/C=C2\CN(C)Cc3c2nc(O)c(C#N)c3-c2ccc(OC)cc2)cc1 | > 100 µM (inactive) | > 100 µM (inactive) | 40.5 µM (inactive) | > 100 µM (inactive) | 64.9 | 51.2 µM (inactive) | 50 µM (inactive) | 92.7 µM (inactive) | 39.7 µM (inactive) | > 100 µM (inactive) | 56.2 µM (inactive) | > 100 µM (inactive) | – | > 100 µM (inactive) | 80.4 µM (inactive) | 80.2 µM (inactive) | 54.1 µM (inactive) | 26.7 µM (inactive) | > 100 µM (inactive) | 13.3 µM (inactive) |
| OC(c1cc(-c2ccc(Cl)cc2)nc2ccccc12)C1CCCCN1 (stereo unspecified) | 5.09 µM (inactive) | 2.32 µM (inactive) | 0.498 µM (active) | 2.14 µM (inactive) | 2.46 | 1.61 µM (inactive) | 1.76 µM (inactive) | 0.982 µM (active) | 1.77 µM (inactive) | 2.09 µM (inactive) | 2.38 µM (inactive) | 2.16 µM (inactive) | – | 1.88 µM (inactive) | 1.77 µM (inactive) | 1.84 µM (inactive) | 2.07 µM (inactive) | 2.02 µM (inactive) | 1.15 µM (inactive) | 2.39 µM (inactive) |
| ClC(Cl)(Cl)C(N1CCN(c2ccccc2)CC1)N1CCN(c2ccccc2)CC1 | > 100 µM (inactive) | > 100 µM (inactive) | – | > 100 µM (inactive) | > 100 | > 100 µM (inactive) | > 100 µM (inactive) | > 100 µM (inactive) | > 100 µM (inactive) | > 100 µM (inactive) | > 100 µM (inactive) | > 100 µM (inactive) | 45 µM (inactive) | – | > 100 µM (inactive) | > 100 µM (inactive) | – | > 100 µM (inactive) | > 100 µM (inactive) | – |
| Cc1ccc2c(=O)c(-c3nnsn3)c[nH]c2n1 | > 100 µM (inactive) | > 100 µM (inactive) | > 100 µM (inactive) | > 100 µM (inactive) | > 100 | > 100 µM (inactive) | > 100 µM (inactive) | > 100 µM (inactive) | > 100 µM (inactive) | > 100 µM (inactive) | > 100 µM (inactive) | > 100 µM (inactive) | – | > 100 µM (inactive) | > 100 µM (inactive) | > 100 µM (inactive) | > 100 µM (inactive) | > 100 µM (inactive) | > 100 µM (inactive) | > 100 µM (inactive) |
| CCN(CC)CCSc1c(C(C)=O)c(=O)n(-c2ccccc2)c(=S)n1-c1ccccc1 | 15.5 µM (inactive) | 10.2 µM (inactive) | 0.571 µM (active) | 15.1 µM (inactive) | 2.8 | 18.9 µM (inactive) | 13 µM (inactive) | 3.32 µM (inactive) | 2.05 µM (inactive) | 6.17 µM (inactive) | 22.2 µM (inactive) | 21 µM (inactive) | – | 2.25 µM (inactive) | 2.58 µM (inactive) | 17.7 µM (inactive) | 2.81 µM (inactive) | 15.8 µM (inactive) | 1.96 µM (inactive) | 2.52 µM (inactive) |
| Cc1cc(C(C)(C)C)cc(CNC2CCCCC2)c1O | 16.3 µM (inactive) | 16.4 µM (inactive) | 17.9 µM (inactive) | 15.7 µM (inactive) | 16.6 | 20.9 µM (inactive) | 13.8 µM (inactive) | 16 µM (inactive) | 15.7 µM (inactive) | 19.5 µM (inactive) | 16.4 µM (inactive) | 16.2 µM (inactive) | 21.8 µM (inactive) | 19.9 µM (inactive) | 14.8 µM (inactive) | 16.3 µM (inactive) | 15.6 µM (inactive) | 16.1 µM (inactive) | 14.9 µM (inactive) | – |
| O=[N+]([O-])C(=C(Nc1ccccc1)Nc1ccccc1)/C(Cl)=C(\Cl)[N+](=O)[O-] | 3.71 µM (inactive) | 1.61 µM (inactive) | 2.86 µM (inactive) | 5.62 µM (inactive) | 2.7 | 10.3 µM (inactive) | – | 2.92 µM (inactive) | 4.75 µM (inactive) | 3.26 µM (inactive) | 3.81 µM (inactive) | 8.13 µM (inactive) | 1.11 µM (active) | 2.19 µM (inactive) | 2.02 µM (inactive) | 4.92 µM (inactive) | 2.82 µM (inactive) | 2.98 µM (inactive) | 3.07 µM (inactive) | – |
| Cc1nc(-c2ccccc2)c(-c2ccccc2)s1 | 23.9 µM (inactive) | 20.2 µM (inactive) | 16.5 µM (inactive) | 22.6 µM (inactive) | 17.7 | 38 µM (inactive) | 18.6 µM (inactive) | 16.4 µM (inactive) | 19.9 µM (inactive) | 17.9 µM (inactive) | 24.2 µM (inactive) | 27.6 µM (inactive) | – | 15.7 µM (inactive) | 37.8 µM (inactive) | 15.2 µM (inactive) | 23.5 µM (inactive) | 25.6 µM (inactive) | 20.2 µM (inactive) | 10 µM (inactive) |
| CN1CC(c2ccccc2)=CC2=C1C=CC(=N)/C2=N\N | 52.2 µM (inactive) | 5.46 µM (inactive) | > 100 µM (inactive) | > 100 µM (inactive) | > 100 | 71.8 µM (inactive) | > 100 µM (inactive) | > 100 µM (inactive) | > 100 µM (inactive) | > 100 µM (inactive) | 47.1 µM (inactive) | > 100 µM (inactive) | > 100 µM (inactive) | > 100 µM (inactive) | > 100 µM (inactive) | > 100 µM (inactive) | > 100 µM (inactive) | > 100 µM (inactive) | > 100 µM (inactive) | – |
| Cc1ccsc1/C=N/Nc1ccccn1 | > 100 µM (inactive) | > 100 µM (inactive) | 40.5 µM (inactive) | 15.2 µM (inactive) | 60.1 | > 100 µM (inactive) | 16.9 µM (inactive) | 37.2 µM (inactive) | 54 µM (inactive) | 50.6 µM (inactive) | 45.3 µM (inactive) | > 100 µM (inactive) | – | 74.3 µM (inactive) | 60.7 µM (inactive) | 76.6 µM (inactive) | 47.5 µM (inactive) | > 100 µM (inactive) | 71.3 µM (inactive) | – |
| Cc1ccc(S(=O)(=O)c2scc(-c3ccccc3)c2C)cc1 | 98.6 µM (inactive) | > 100 µM (inactive) | – | 37.6 µM (inactive) | > 100 | > 100 µM (inactive) | > 100 µM (inactive) | 64.3 µM (inactive) | > 100 µM (inactive) | 91 µM (inactive) | 35.5 µM (inactive) | – | – | > 100 µM (inactive) | 36.5 µM (inactive) | > 100 µM (inactive) | 77.3 µM (inactive) | > 100 µM (inactive) | > 100 µM (inactive) | 45 µM (inactive) |
| Cc1n[n+](CC(=O)c2ccccc2)c2sc(N)nn12 | > 100 µM (inactive) | > 100 µM (inactive) | > 100 µM (inactive) | > 100 µM (inactive) | > 100 | > 100 µM (inactive) | > 100 µM (inactive) | > 100 µM (inactive) | > 100 µM (inactive) | > 100 µM (inactive) | > 100 µM (inactive) | > 100 µM (inactive) | – | > 100 µM (inactive) | > 100 µM (inactive) | > 100 µM (inactive) | > 100 µM (inactive) | > 100 µM (inactive) | > 100 µM (inactive) | – |
